Each structure is given as a SMILES string.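 In this assay, cells in 96-well plates receive the compound at five concentrations for 48 hours. Endpoints are linearly interpolated between the surrounding concentrations. GI50 is the concentration that inhibits growth by half.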 Calls of active or inactive are those of the source. Cut-off read from the data, not from the text of the source: active = GI50 up to about 1.1 µM and inactive = higher.

Some test systems named below: A498; COLO 205; DU-145; HCT-15; HOP-92; HT-29; Hs-578T; K562; KM12; M14; MDA-MB-231; NCI-H522; NCI/ADR-RES; OVCAR-8; SF-539; SK-MEL-28; SK-MEL-5; SNB-75; SR; SW-620.
Assay in all cases: growth of human tumour cells (NCI), 48 h

With `COC(=O)c1ccc(NCc2cc(O)ccc2O)cc1O`, the GI50 was 20.7 µM (inactive) with A498; 16.7 µM (inactive) in the assay with COLO 205; 12.3 µM (inactive) with DU-145; 11.9 µM with HCT-15; 11.2 µM (inactive) in the assay on HOP-92; 17.2 µM (inactive) with HT-29. Besides, the GI50 in the assay with Hs-578T is 15.7 µM (inactive); with K562, 4.1 µM (inactive); in the assay on KM12, 3.28 µM (inactive); in the assay with M14, 16.5 µM (inactive); in the assay with MDA-MB-231 it was 11 µM (inactive); with NCI-H522, 0.405 µM (active). The GI50 in the assay on NCI/ADR-RES was 1.85 µM (inactive); in the assay with OVCAR-8, 3.29 µM (inactive); in the assay on SF-539, 1.91 µM (inactive); in the assay on SK-MEL-28, 16.4 µM (inactive); in the assay with SK-MEL-5, 12.6 µM (inactive); with SNB-75, 3.08 µM (inactive). The GI50 with SR was 5.48 µM (inactive); in the assay on SW-620 it was 6.55 µM (inactive).
Take `Cn1c(=S)c2nc(SCCN3C(=O)c4ccccc4C3=O)[nH]c2n(C)c1=O`: the GI50 with A498 was > 100 µM (inactive); in the assay with COLO 205, > 100 µM (inactive); in the assay with DU-145, > 100 µM (inactive); with HCT-15, more than 100 µM; in the assay on HOP-92, > 100 µM (inactive); in the assay on HT-29, > 100 µM (inactive). The GI50 in the assay on Hs-578T is > 100 µM (inactive); with K562, > 100 µM (inactive); in the assay on KM12 it was > 100 µM (inactive); in the assay on M14, > 100 µM (inactive); in the assay on MDA-MB-231, > 100 µM (inactive); in the assay with NCI-H522, 5.27 µM (inactive). In addition, the GI50 in the assay with NCI/ADR-RES, in the assay with OVCAR-8, in the assay with SF-539, in the assay with SK-MEL-28, in the assay on SK-MEL-5 and with SNB-75 was > 100 µM (inactive) throughout. For the same molecule, the GI50 was 3.75 µM (inactive) in the assay on SR and > 100 µM (inactive) in the assay on SW-620.
As for `O=C(Cn1ccnc1[N+](=O)[O-])N(CCO)CCO`, the GI50 is > 1250 µM (inactive) in the assay on A498; > 1250 µM (inactive) with COLO 205; > 250 µM (inactive) in the assay on DU-145; more than 250 µM in the assay with HCT-15; > 1250 µM (inactive) in the assay with HOP-92; > 250 µM (inactive) in the assay with HT-29. Further, the GI50 in the assay with Hs-578T, in the assay with K562, in the assay with KM12, with M14, in the assay with MDA-MB-231 and in the assay on NCI-H522 was > 250 µM (inactive) each time. The GI50 in the assay on NCI/ADR-RES was > 250 µM (inactive); in the assay on OVCAR-8 it was > 250 µM (inactive); with SF-539, > 250 µM (inactive); in the assay on SK-MEL-28, > 250 µM (inactive); in the assay with SK-MEL-5 it was > 141 µM (inactive); in the assay on SNB-75, > 1250 µM (inactive). For the same molecule, the GI50 is > 79.1 µM (inactive) in the assay with SR and > 250 µM (inactive) in the assay on SW-620.
In the case of `Cc1ccccc1OC(C)C(=O)NN1C(=O)CSC1c1ccc(Cl)cc1` (configuration not stated), the GI50 was 24 µM (inactive) in the assay with A498; > 56.1 µM (inactive) with COLO 205; 38.2 µM (inactive) in the assay on DU-145; 46.6 µM in the assay with HCT-15; 31 µM (inactive) in the assay with HOP-92; 18.4 µM (inactive) with HT-29. Also, the GI50 in the assay on Hs-578T was 41.8 µM (inactive); in the assay with K562, 23.6 µM (inactive); in the assay on KM12 it was 42.2 µM (inactive); with M14, 41.5 µM (inactive); in the assay on MDA-MB-231 it was 26.2 µM (inactive); with NCI-H522, 4.16 µM (inactive). Moreover, the GI50 in the assay on NCI/ADR-RES is 54.3 µM (inactive); in the assay on OVCAR-8 it was 52 µM (inactive); in the assay on SF-539, 26.5 µM (inactive); in the assay on SK-MEL-28 it was 73.3 µM (inactive); with SK-MEL-5, 49.9 µM (inactive); with SNB-75, 35.7 µM (inactive). Besides, the GI50 with SR was 5.47 µM (inactive); in the assay on SW-620, 32.1 µM (inactive).
For `CC1=NN2C(=N)/C(=C/c3ccco3)C(=O)N=C2S1`, the GI50 in the assay on A498 is > 100 µM (inactive); in the assay on COLO 205 it was > 100 µM (inactive); with DU-145, > 100 µM (inactive); in the assay with HCT-15, more than 100 µM; in the assay with HOP-92 it was 65.5 µM (inactive); in the assay with HT-29, > 100 µM (inactive). The GI50 in the assay with Hs-578T was > 100 µM (inactive); in the assay with K562, > 100 µM (inactive); with KM12 it was > 100 µM (inactive); with M14, > 100 µM (inactive); in the assay on MDA-MB-231 it was > 100 µM (inactive); with NCI-H522 it was 1.15 µM (inactive). For the same molecule, the GI50 with NCI/ADR-RES, in the assay on OVCAR-8, in the assay on SF-539, in the assay with SK-MEL-28, with SK-MEL-5 and with SNB-75 was > 100 µM (inactive) throughout. Further, the results for the GI50 in the assay on SR and with SW-620 were 50.4 µM (inactive) and > 100 µM (inactive), respectively.
As for `O=C(NCCc1ccccc1)[C@H]1CCCC[C@@H]1CCO`, the GI50 was > 100 µM (inactive) in the assay with A498; > 100 µM (inactive) with COLO 205; > 100 µM (inactive) with DU-145; more than 100 µM in the assay on HCT-15; > 100 µM (inactive) in the assay on HOP-92; > 100 µM (inactive) in the assay on HT-29. In addition, the GI50 in the assay with Hs-578T, in the assay on K562, with KM12, with M14, in the assay with MDA-MB-231 and in the assay with NCI-H522 was > 100 µM (inactive) each time. Moreover, the GI50 in the assay with NCI/ADR-RES, with OVCAR-8, with SF-539, with SK-MEL-28, in the assay on SK-MEL-5 and with SNB-75 was > 100 µM (inactive) each time. Moreover, the GI50 in the assay with SR and with SW-620 was > 100 µM (inactive) in each case.
For the molecule `Cc1ccc(NC(=O)CCc2nnc3s/c(=C\C=C\c4ccccc4)c(=O)n23)cc1`, the GI50 with A498 was > 94.4 µM (inactive); in the assay on COLO 205, > 100 µM (inactive); with DU-145, > 100 µM (inactive); in the assay on HCT-15, more than 100 µM; in the assay with HOP-92 it was > 83 µM (inactive); in the assay with HT-29, > 100 µM (inactive). Besides, the GI50 with Hs-578T is > 78 µM (inactive); with K562, > 100 µM (inactive); in the assay on KM12, 61.8 µM (inactive); in the assay on M14 it was > 100 µM (inactive); with MDA-MB-231 it was > 100 µM (inactive); in the assay on NCI-H522 it was 37.8 µM (inactive). Also, the GI50 was 26.5 µM (inactive) with NCI/ADR-RES; 31.3 µM (inactive) in the assay with OVCAR-8; 55.3 µM (inactive) in the assay with SF-539; > 100 µM (inactive) in the assay on SK-MEL-28; > 95.5 µM (inactive) in the assay on SK-MEL-5; > 83.2 µM (inactive) in the assay on SNB-75. In addition, the GI50 in the assay on SR was 7.29 µM (inactive); in the assay on SW-620, > 100 µM (inactive).
`COC(=O)c1cccc2c1Oc1ccccc1S2`: the GI50 in the assay on A498 is 85.3 µM (inactive); with COLO 205, 19.6 µM (inactive); with DU-145, > 100 µM (inactive); in the assay with HCT-15, 46.1 µM; with HOP-92, 25.8 µM (inactive); in the assay with HT-29 it was 25.9 µM (inactive). The GI50 in the assay on Hs-578T was 40.6 µM (inactive); in the assay on K562, 57.9 µM (inactive); with KM12, 12 µM (inactive); with M14 it was > 100 µM (inactive); with MDA-MB-231 it was 38.7 µM (inactive); with NCI-H522, 27.1 µM (inactive). Also, the GI50 with NCI/ADR-RES is 34.4 µM (inactive); in the assay with OVCAR-8 it was 74.3 µM (inactive); in the assay on SF-539, 55.1 µM (inactive); with SK-MEL-28, 96.8 µM (inactive); with SK-MEL-5, 18.9 µM (inactive); in the assay on SNB-75, 24.1 µM (inactive). Moreover, the GI50 in the assay on SR is > 100 µM (inactive); in the assay on SW-620 it was 59.6 µM (inactive).
Consider `CC1=C(C)CC2(C=C(C(C)(C)C)C(=O)C(C(C)(C)C)=C2)SC1`, for which the GI50 was 17.5 µM (inactive) in the assay on A498; 17.6 µM (inactive) in the assay with COLO 205; 39.3 µM (inactive) in the assay with DU-145; 19.2 µM (inactive) in the assay on HOP-92; 19.9 µM (inactive) in the assay with HT-29; 16.9 µM (inactive) in the assay with Hs-578T. Besides, the GI50 in the assay on K562 was 30.3 µM (inactive); in the assay on KM12, 19.1 µM (inactive); with M14 it was 24.7 µM (inactive); in the assay on MDA-MB-231 it was 14.3 µM (inactive); in the assay with NCI-H522, 1.91 µM (inactive); in the assay on NCI/ADR-RES, 19.1 µM (inactive). The GI50 was 18.3 µM (inactive) with SF-539; 13.2 µM (inactive) in the assay on SK-MEL-5; 16.1 µM (inactive) with SNB-75; 26.5 µM (inactive) in the assay with SR; 18.2 µM (inactive) in the assay on SW-620.
Regarding `CN(C)c1ccc(C(c2ccc(Cl)cc2)c2ccc(N(C)C)cc2)cc1`, the GI50 is > 100 µM (inactive) in the assay on A498; 34.7 µM (inactive) in the assay on COLO 205; > 100 µM (inactive) in the assay on DU-145; more than 100 µM in the assay on HCT-15; > 100 µM (inactive) in the assay on HOP-92; > 100 µM (inactive) in the assay on HT-29. Further, the GI50 with Hs-578T is 90.6 µM (inactive); in the assay with K562, 83 µM (inactive); in the assay on KM12 it was > 100 µM (inactive); in the assay with M14, > 100 µM (inactive); in the assay on MDA-MB-231, > 100 µM (inactive); with NCI-H522 it was 28.5 µM (inactive). The GI50 was > 100 µM (inactive) with NCI/ADR-RES; 99.1 µM (inactive) in the assay with OVCAR-8; > 100 µM (inactive) with SF-539; > 100 µM (inactive) in the assay with SK-MEL-28; 92.9 µM (inactive) with SK-MEL-5; > 100 µM (inactive) with SNB-75. The GI50 in the assay with SR is 57.5 µM (inactive); with SW-620, > 100 µM (inactive).

Values taken from ChEMBL document CHEMBL1201862, “PubChem BioAssay data set” (2004).
